Assay results reported in US20240391862A1, “(1,4,5-TRISUBSTITUTED-1H-PYRAZOL-3-YL)OXY-2-ALKOXY ALKYL ACIDS AND THEIR DERIVATIVES, THEIR SALTS AND THEIR USE AS HERBICIDAL AGENTS” (Bayer AKtiengesellschaft, priority 2021, published 2024).

Key:
[1] = test system: LOLRI; test: Post-emergence herbicidal effect, greenhouse pot test; type: in vivo, Lolium rigidum; conditions: Lolium rigidum, 504 h, read-out: Post-emergence effect against LOLRI in %
Description: (§1) • ALOMY: Alopecurus myosuroides SETVI: Setaria viridis • AVEFA: Avena fatua POLCO: Fallopia convolvulus • AMARE: Amaranthus retroflexus ECHCG: Echinochloa crus-galli • LOLRJ: Lolium rigidum STEME: Stellaria media • VERPE: Veronica persica MATIN: Tripleurospermum inodorum • DIGSA: Digitaria sanguinalis ABUTH: Abutylon threophrasti • TRZAS: Triticum aestivum VIOTR: Viola tricolor • BRSNW: Brassica napus ZEAMX: Zea mays • PHBPU: Ipomoea purpurea GLXMA: Glycine max • ORYSA: Oryza sativa HORMU: Hordeum murinum
(§2) Seeds of monocotyledonous and dicotyledonous weeds and crop plants are placed in sandy loam in plastic or organic planting pots, covered with soil and cultivated in a greenhouse under controlled growth conditions. 2 to 3 weeks after sowing, the trial plants are treated at the one-leaf stage. The compounds of the invention, formulated in the form of wettable powders (WP) or as emulsion concentrates (EC), are then sprayed onto the green parts of the plants as aqueous suspension or emulsion with addition of 0.5% additive at a water application rate of 600 l/ha (converted). After the test plants have been kept in the greenhouse under optimum growth conditions for about 3 weeks, the activity of the preparations is rated visually in comparison to untreated controls. For example, 100% activity=the plants have died, 0% activity=like control plants.
(§3) Tables 20a to 38c below show the effects/crop compatibilities of selected compounds of the general formula (I) on various harmful plants at an application rate corresponding to 20 to 320 g/ha, which were obtained by the trial procedure specified above.

[2] = test system: AMARE; test: as above; type: in vivo, Amaranthus retroflexus; conditions: Amaranthus retroflexus, 504 h, visual rating about 3 weeks after treatment, read-out: Post-emergence effect against AMARE
Description: as §1, §2, §3

[3] = test system: PHBPU; test: as above; type: in vivo, Ipomoea purpurea; conditions: Ipomoea purpurea, 504 h, read-out: Post-emergence effect against PHBPU in %
Description: as §1, §2, §3

[4] = test system: ABUTH; test: as above; type: in vivo, Abutilon theophrasti; conditions: Abutilon theophrasti, 504 h, visual rating about 3 weeks after treatment, read-out: Post-emergence effect against ABUTH
Description: as §1, §2, §3

[5] = test system: MATIN; test: as above; type: in vivo, Tripleurospermum inodorum; conditions: Tripleurospermum inodorum, 504 h, read-out: Post-emergence effect against MATIN in %
Description: as §1, §2, §3

[6] = test system: ALOMY; test: as above; type: in vivo, Alopecurus myosuroides; conditions: Alopecurus myosuroides, 504 h, visual rating about 3 weeks after treatment, read-out: Post-emergence effect against ALOMY
Description: as §1, §2, §3

[7] = test system: DIGSA; test: as above; type: in vivo, Digitaria sanguinalis; conditions: Digitaria sanguinalis, 504 h, visual rating about 3 weeks after treatment, read-out: Post-emergence effect against DIGSA
Description: as §1, §2, §3

[8] = test system: VIOTR; test: as above; type: in vivo, Viola tricolor; conditions: Viola tricolor, 504 h, read-out: Post-emergence effect against VIOTR in %
Description: as §1, §2, §3

[9] = test system: VERPE; test: as above; type: in vivo, Veronica persica; conditions: Veronica persica, 504 h, read-out: Post-emergence effect against VERPE in %
Description: as §1, §2, §3

[10] = test system: SETVI; test: as above; type: in vivo, Setaria viridis; conditions: Setaria viridis, 504 h, read-out: Post-emergence effect against SETVI in %
Description: as §1, §2, §3

[11] = test system: AVEFA; test: as above; type: in vivo, Avena fatua; conditions: Avena fatua, 504 h, visual rating about 3 weeks after treatment, read-out: Post-emergence effect against AVEFA
Description: as §1, §2, §3

[12] = test system: ZEAMX; test: Post-emergence herbicidal effect and crop plant compatibility, greenhouse pot test; type: in vivo, Zea mays; conditions: Zea mays, 504 h, 20 g/ha, one-leaf stage, rated visually after about 3 weeks vs untreated controls, read-out: Post-emergence effect at 20 g/ha against ZEAMX in %
Description: as §1, §2, §3

[13] = test system: ECHCG; test: Post-emergence herbicidal effect, greenhouse pot test; type: in vivo, Echinochloa crus-galli; conditions: Echinochloa crus-galli, 504 h; for pest or weed control at 80 g/ha / pest or weed control at 320 g/ha: read-out: Post-emergence effect against ECHCG in %
Description: as §1, §2, §3

[14] = test system: POLCO; test: as above; type: in vivo, Fallopia convolvulus; conditions: Fallopia convolvulus, 504 h, 320 g/ha, read-out: Post-emergence effect against POLCO in %
Description: as §1, §2, §3

[15] = test system: KCHSC; test: as above; type: in vivo; conditions: 504 h, read-out: Post-emergence effect against KCHSC in %
Protocol: as §2, with “plants. Tables 20a to 38c below show the effects/crop compatibilities of selected compounds of the general formula (I) on various harmful plants at an application rate corresponding to 20 to 320 g/ha, which were obtained by the trial procedure specified above.” for “plants.”

Row | Structure (SMILES) | pest or weed control at 80 g/ha [1] [%] | pest or weed control at 320 g/ha [1] [%] | pest or weed control at 20 g/ha [3] [%] | pest or weed control at 80 g/ha [3] [%] | pest or weed control at 320 g/ha [3] [%] | pest or weed control at 320 g/ha [4] [%] | pest or weed control at 80 g/ha [5] [%] | pest or weed control at 320 g/ha [5] [%] | pest or weed control at 320 g/ha [6] [%] | pest or weed control at 320 g/ha [7] [%] | pest or weed control at 80 g/ha [8] [%] | pest or weed control at 320 g/ha [8] [%] | pest or weed control at 80 g/ha [9] [%] | pest or weed control at 320 g/ha [9] [%] | pest or weed control at 320 g/ha [10] [%] | pest or weed control at 80 g/ha [11] [%] | pest or weed control at 320 g/ha [11] [%] | pest or weed control at 80 g/ha [13] [%] | pest or weed control at 320 g/ha [13] [%] | other results
1 | COC(=O)C(OC)Oc1nn(-c2ccccc2)c(-c2ccc(F)nc2)c1Cl (stereo not drawn) [Example I-26] | 90 | 90 | 80 | 80 | 90 | 90 | 80 | 80 | 90 | 90 | 80 | 80 | 90 | 90 | 90 | 80 | 90 | 80 | 90 | pest or weed control at 20 g/ha ([2]; 20 g/ha): 80%; pest or weed control at 80 g/ha ([2]; 80 g/ha): 80%; pest or weed control at 320 g/ha ([2]; 320 g/ha): 80%; pest or weed control at 20 g/ha ([5]; 20 g/ha): 80%; pest or weed control at 80 g/ha ([6]; 80 g/ha): 90%; pest or weed control at 80 g/ha ([7]; 80 g/ha): 80%; plant injury at 20 g/ha [12]: 20%
2 | COC(=O)C(OC)Oc1nn(-c2ncccc2F)c(-c2cncc(F)c2)c1Br (stereo not drawn) [Example I-91] | 90 | 90 | 80 | 80 | 80 | 80 | 80 | 80 | 80 | 90 | 80 | 80 | 80 | 80 | 80 | 90 | 90 | 80 | 90 | pest or weed control at 320 g/ha [14]: 80%; pest or weed control at 80 g/ha ([4]; 80 g/ha): 80%; pest or weed control at 20 g/ha ([15]; 20 g/ha): 80%; pest or weed control at 80 g/ha ([15]; 80 g/ha): 80%; pest or weed control at 320 g/ha ([15]; 320 g/ha): 90%; pest or weed control at 20 g/ha ([8]; 20 g/ha): 80%; pest or weed control at 20 g/ha ([10]; 20 g/ha): 80%; pest or weed control at 80 g/ha ([10]; 80 g/ha): 80%; pest or weed control at 20 g/ha ([13]; 20 g/ha, visual rating about 3 weeks after treatment, read-out: Post-emergence effect against ECHCG): 80%
